PubChem BioAssay AID2060910 (Molecular Pharmacology Branch, DTP, NCI, 2025)
pIC50: −log10 of the molar value. Each block holds one molecule with its values, some of them ahead of it.

Tested on: 242566-281-R-J2-PDC complex spheroid viability
Test: Anticancer human tumor 242566-281-R-J2-PDC patient-derived pancreatic carcinoma cell line growth inhibition [RAS]
Details: for pIC50: curve of first compound; for viability, T/C: stronger effect = lower value
In short: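 Multi-cell-type spheroids: tumor cells plus HUVEC endothelial cells and mesenchymal stem cells. RAS-pathway inhibitors were combined with targeted agents, each dosed in half-log steps down from clinical Cmax, or from 10 microM when Cmax was unknown.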
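Note: spheroids exposed to compound for 7 days before readout.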
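Throughout, for viability, T/C: 100% = DMSO vehicle control wells.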

pIC50 (second compound 0.0316 µM): < 6.52 | pIC50 (second compound 0.1 µM): < 6.52 | pIC50 (second compound 0.316 µM): < 6.52 | pIC50 (second compound 1 µM): < 6.52 | pIC50 (second compound 3.16 µM): < 6.52 | pIC50 (second compound 10 µM): > 9.02
SMILES: CC1(C)CCC(Nc2ncc(C(F)(F)F)c(-c3c[nH]c4c(P(C)(C)=O)c(C#N)ccc34)n2)CN1 (centres undefined) + C#Cc1c(F)ccc2cc(O)cc(-c3ncc4c(N5CC6CCC(C5)N6)nc(OCC56CCCN5CC(F)C6)nc4c3F)c12
viability, T/C (second compound 0.0316 µM, first compound 0.000949 µM): 90.3% | viability, T/C (second compound 0.0316 µM, first compound 0.003 µM): 111% | viability, T/C (second compound 0.0316 µM, first compound 0.00949 µM): 85.6% | viability, T/C (second compound 0.0316 µM, first compound 0.03 µM): 86.4% | viability, T/C (second compound 0.0316 µM, first compound 0.0949 µM): 84.9% | viability, T/C (second compound 0.0316 µM, first compound 0.3 µM): 88.8% | viability, T/C (second compound 0.1 µM, first compound 0.000949 µM): 78.1% | viability, T/C (second compound 0.1 µM, first compound 0.003 µM): 81.8% | viability, T/C (second compound 0.1 µM, first compound 0.00949 µM): 71.6% | viability, T/C (second compound 0.1 µM, first compound 0.03 µM): 81.7% | viability, T/C (second compound 0.1 µM, first compound 0.0949 µM): 81.2% | viability, T/C (second compound 0.1 µM, first compound 0.3 µM): 81.3% | viability, T/C (second compound 0.316 µM, first compound 0.000949 µM): 70.7% | viability, T/C (second compound 0.316 µM, first compound 0.003 µM): 66.6% | viability, T/C (second compound 0.316 µM, first compound 0.00949 µM): 62.3% | viability, T/C (second compound 0.316 µM, first compound 0.03 µM): 60.5% | viability, T/C (second compound 0.316 µM, first compound 0.0949 µM): 62.9% | viability, T/C (second compound 0.316 µM, first compound 0.3 µM): 62.9% | viability, T/C (second compound 1 µM, first compound 0.000949 µM): 59.4% | viability, T/C (second compound 1 µM, first compound 0.003 µM): 59.8% | viability, T/C (second compound 1 µM, first compound 0.00949 µM): 49.3% | viability, T/C (second compound 1 µM, first compound 0.03 µM): 47.4% | viability, T/C (second compound 1 µM, first compound 0.0949 µM): 55.1% | viability, T/C (second compound 1 µM, first compound 0.3 µM): 59.5% | viability, T/C (second compound 3.16 µM, first compound 0.000949 µM): 50.8% | viability, T/C (second compound 3.16 µM, first compound 0.003 µM): 57.5% | viability, T/C (second compound 3.16 µM, first compound 0.00949 µM): 48.4% | viability, T/C (second compound 3.16 µM, first compound 0.03 µM): 47.4% | viability, T/C (second compound 3.16 µM, first compound 0.0949 µM): 49.8% | viability, T/C (second compound 3.16 µM, first compound 0.3 µM): 53.3% | viability, T/C (second compound 10 µM, first compound 0.000949 µM): 45.2% | viability, T/C (second compound 10 µM, first compound 0.003 µM): 50% | viability, T/C (second compound 10 µM, first compound 0.00949 µM): 44.7% | viability, T/C (second compound 10 µM, first compound 0.03 µM): 50.2% | viability, T/C (second compound 10 µM, first compound 0.0949 µM): 53.4% | viability, T/C (second compound 10 µM, first compound 0.3 µM): 44.1%

pIC50 (second compound 0.00316 µM): < 6.00 | pIC50 (second compound 0.01 µM): < 6.00 | pIC50 (second compound 0.0316 µM): < 6.00 | pIC50 (second compound 0.1 µM): < 6.00 | pIC50 (second compound 0.316 µM): < 6.00 | pIC50 (second compound 1 µM): < 6.00
SMILES: C=CC(=O)Nc1cc(Nc2nccc(-c3cn(C)c4ccccc34)n2)c(OC)cc1N(C)CCN(C)C + C=CC(=O)N1CCN(c2nc(OCC3CCCN3C)nc3c(F)c(-c4nc(N)cc(C)c4C(F)(F)F)c(Cl)cc23)C(C)C1
viability, T/C (second compound 0.00316 µM, first compound 0.00316 µM): 95.1% | viability, T/C (second compound 0.00316 µM, first compound 0.01 µM): 133% | viability, T/C (second compound 0.00316 µM, first compound 0.0316 µM): 82.7% | viability, T/C (second compound 0.00316 µM, first compound 0.1 µM): 74.5% | viability, T/C (second compound 0.00316 µM, first compound 0.316 µM): 80.5% | viability, T/C (second compound 0.00316 µM, first compound 1 µM): 85.7% | viability, T/C (second compound 0.01 µM, first compound 0.00316 µM): 97.6% | viability, T/C (second compound 0.01 µM, first compound 0.01 µM): 138% | viability, T/C (second compound 0.01 µM, first compound 0.0316 µM): 86.7% | viability, T/C (second compound 0.01 µM, first compound 0.1 µM): 93.4% | viability, T/C (second compound 0.01 µM, first compound 0.316 µM): 86.1% | viability, T/C (second compound 0.01 µM, first compound 1 µM): 84.8% | viability, T/C (second compound 0.0316 µM, first compound 0.00316 µM): 109% | viability, T/C (second compound 0.0316 µM, first compound 0.01 µM): 121% | viability, T/C (second compound 0.0316 µM, first compound 0.0316 µM): 90.7% | viability, T/C (second compound 0.0316 µM, first compound 0.1 µM): 91% | viability, T/C (second compound 0.0316 µM, first compound 0.316 µM): 79.8% | viability, T/C (second compound 0.0316 µM, first compound 1 µM): 78.3% | viability, T/C (second compound 0.1 µM, first compound 0.00316 µM): 105% | viability, T/C (second compound 0.1 µM, first compound 0.01 µM): 136% | viability, T/C (second compound 0.1 µM, first compound 0.0316 µM): 103% | viability, T/C (second compound 0.1 µM, first compound 0.1 µM): 95.4% | viability, T/C (second compound 0.1 µM, first compound 0.316 µM): 78.9% | viability, T/C (second compound 0.1 µM, first compound 1 µM): 76.8% | viability, T/C (second compound 0.316 µM, first compound 0.00316 µM): 104% | viability, T/C (second compound 0.316 µM, first compound 0.01 µM): 121% | viability, T/C (second compound 0.316 µM, first compound 0.0316 µM): 96.4% | viability, T/C (second compound 0.316 µM, first compound 0.1 µM): 79.2% | viability, T/C (second compound 0.316 µM, first compound 0.316 µM): 95.3% | viability, T/C (second compound 0.316 µM, first compound 1 µM): 87.2% | viability, T/C (second compound 1 µM, first compound 0.00316 µM): 108% | viability, T/C (second compound 1 µM, first compound 0.01 µM): 129% | viability, T/C (second compound 1 µM, first compound 0.0316 µM): 81% | viability, T/C (second compound 1 µM, first compound 0.1 µM): 112% | viability, T/C (second compound 1 µM, first compound 0.316 µM): 83.7% | viability, T/C (second compound 1 µM, first compound 1 µM): 89.8%
